The values below come from patent US20080063643A1, “Peptide Derived From Hepatitis C Virus” (priority 2003, published 2008).

No end group written: not given here.

Series [1] concerns C1R-A2402 cell stably transfected with NS5A gene. To be noted: 6-hour 51Cr release, three E/T ratios.
Experimental: In order to prepare a stable transfectant cell line, either pCR3.1-NS5A or pCR3.1-HLA-A3101 (negative control) was transfected to C1R-A2402 cell by electroporation using a Gene Pulser (BioRAD, Richmond, Calif.) These cells were cultured for 30 to 40 days in the presence of geneticin (G418), and then geneticin resistant cells were collected.
Next, cytotoxicity was tested against C1R-A2402 cell that was stably transfected with NS5A gene and used as a target cell.
Then, cytotoxicity was tested by a 6-hour ^51Cr release assay using C1R-A2402 cell that was stably transfected with NS5A gene as a target cell. C1R-A2402 cell that was stably transfected with a negative control gene (HLA-A3101) was used as a negative control, and C1R-A2402 cell that was pulsed with NS5A-2132 peptide was used as a positive control. A 6-hour ^51Cr release assay was carried out at three different E/T ratios. The values are expressed as the mean±SD of percentage of specific lysis.
Series [2] deals with C1R-A2402 cell pulsed with a corresponding peptide. Nature of the series: 6-hour 51Cr release assay of peptide-stimulated PBMC (Example 2). The format is cell-based, human. To be noted: cells pre-loaded with corresponding peptide versus HIV peptide; three E/T ratios. The procedure: The cytotoxicity of these peptide-stimulated PBMC was examined by a 6-hour ^51Cr release assay (FIG. 15). Peptide-stimulated PBMC showing positive response in the IFN-γ production assay (described above) was cultured and grown in vitro only with IL-2. Then, cytotoxicity against C1R-A2402 cell pulsed with a corresponding peptide or an HIV peptide (negative control) was tested by a standard 6-hour ^51Cr release assay at three different E/T cell ratios.
The peptide-stimulated PBMC used in the experiment shown in FIG. 15 was tested for cytotoxicity against C1R-A2402 cells pulsed with a corresponding peptide in the presence of 20 μg/ml of an anti-HLA-class I (W6/32, IgG2a), anti-HLA-class II (H-DR-1, IgG2a), anti-CD8 (Nu-Ts/c, IgG2a) or anti-CD4 (Nu-Th/i, IgG1) monoclonal antibody (mAb). An anti-CD14 (JML-H14, IgG2a) mAb was used as a negative control.

For series [3], the system named is PBMCs from HLA-A24+ patients infected with HCV-1b and HLA-A24+ HDs. As to the kind of experiment: IFN-γ production by peptide-stimulated PBMC (Example 2). It counts as cell-based, human. The note with it: C1R-A2402 cells pulsed with the negative control peptide. The procedure:
Peptide-specific CTL precursor cells were detected by the method as described in Hida et al. (Cancer Immunol Immunother 2002; 51: 219-228). For an inhibition assay, 20 μg/ml of anti-HLA class I (W6/32, IgG2a), anti-CD8 (Nu-Ts/c, IgG2a), anti-CD4 (Nu-Th/i, IgG1b) and anti-HLA class II (H-DR-1, IgG) monoclonal antibodies were used.
PBMCs from HLA-A24^+ patients infected with HCV-1b (n=12, 6 CH patients, 3 LC patients, and 3 HCC patients) and HLA-A24^+ HDs (n=5) without HCV infection were cultured with each of the 6 types of peptides (purity >90%) or a control HIV peptide for 13 days, and examined for IFN production in response to C1R-A2402 cell pulsed with a corresponding peptide. PBMCs from HLA-A24^+ HCV-1b^+ patients (n=12) and HDs (n=5) were stimulated with any of the 6 types of peptides in 4 wells (15×10^4/well). On day 14 of the culture, the peptide-stimulated PBMCs (80 to 120×10^4/well) were separately collected from each well and divided into quarters. Two portions of them were tested separately for the ability to produce IFN-γ in response to C1R-A2402 cells pulsed with the corresponding peptide. The remaining two portions were tested with cells using the negative control peptide (HIV). The level of IFN-γ produced in response to the HIV peptide (<50 pg/ml) was subtracted as background.

Take RYAPACKPL [No. 3]: in series [1], the “cytotoxicity against NS5A-transfected cells versus negative control gene” value is recorded as “showed a higher cytotoxicity level”. Also, the “cytotoxicity of peptide-stimulated PBMC” value in series [2] is reported as “showed a significant level of cytotoxicity”.
For the sequence RYLRDQQLLGI [HIV peptide], in series [3], the “level of IFN-γ produced in response to the peptide (background)” value is less than 50 pg/mL.
